From patent US7776872B2, “Diaminopyrimidines as P2X3 and P2X2/3 modulators” (Roche Palo Alto LLC, priority 2005, dated 2010)

Key:
human P2X2/3 receptor = biological target: T1, human P2X2/3 receptor (Homo sapiens, UniProt P56373+Q9UBL9); assay: P2X2/3 FLIPR (Fluorometric Imaging Plate Reader) assay, CHO-K1 cells; assay type: cell-based; settings: CHO-K1 cells transfected with human P2X2/3; agonist α,β-meATP 5 μM; Fluo-3 calcium fluorescence
T1 construct: expressed in transfected cells; host or cells: CHO-K1
T1 sequence (Q9UBL9 1-471): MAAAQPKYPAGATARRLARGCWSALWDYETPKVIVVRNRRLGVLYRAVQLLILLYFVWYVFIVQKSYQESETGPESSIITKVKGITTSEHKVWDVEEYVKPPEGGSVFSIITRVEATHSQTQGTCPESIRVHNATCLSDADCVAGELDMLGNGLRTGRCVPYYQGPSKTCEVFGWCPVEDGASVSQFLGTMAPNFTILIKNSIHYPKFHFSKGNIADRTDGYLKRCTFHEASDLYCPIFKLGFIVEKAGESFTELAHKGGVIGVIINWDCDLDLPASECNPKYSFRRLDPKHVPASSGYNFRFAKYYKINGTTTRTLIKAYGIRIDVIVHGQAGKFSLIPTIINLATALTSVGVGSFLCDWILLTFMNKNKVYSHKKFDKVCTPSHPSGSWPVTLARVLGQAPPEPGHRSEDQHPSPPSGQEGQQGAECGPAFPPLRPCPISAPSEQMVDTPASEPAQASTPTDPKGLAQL
T1 sequence (P56373 1-397): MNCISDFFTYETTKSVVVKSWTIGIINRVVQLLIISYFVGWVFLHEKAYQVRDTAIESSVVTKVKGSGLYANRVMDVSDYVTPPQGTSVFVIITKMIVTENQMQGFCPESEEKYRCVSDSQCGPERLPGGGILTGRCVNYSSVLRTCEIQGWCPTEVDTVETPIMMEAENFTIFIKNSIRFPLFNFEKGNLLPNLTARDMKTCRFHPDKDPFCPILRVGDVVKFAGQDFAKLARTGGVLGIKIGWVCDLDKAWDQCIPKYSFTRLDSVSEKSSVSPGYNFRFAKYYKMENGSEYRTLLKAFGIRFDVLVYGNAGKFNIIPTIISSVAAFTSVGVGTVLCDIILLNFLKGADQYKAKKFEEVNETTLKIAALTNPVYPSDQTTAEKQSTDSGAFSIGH
Experimental: (§1) CHO-K1 cells were transfected with cloned rat P2X3 or human P2X2/3 receptor subunits and passaged in flasks. 18-24 hours before the FLIPR experiment, cells were released from their flasks, centrifuged, and resuspended in nutrient medium at 2.5×10^5 cells/ml. The cells were aliquoted into black-walled 96-well plates at a density of 50,000 cells/well and incubated overnight in 5% CO2 at 37° C. On the day of the experiment, cells were washed in FLIPR buffer (calcium- and magnesium-free Hank's balanced salt solution, 10 mM HEPES, 2 mM CaCl2, 2.5 mM probenecid; FB). Each well received 100 μl FB and 100 μl of the fluorescent dye Fluo-3 AM [2 μM final conc.]. […]
(§2) Test compounds (dissolved in DMSO at 10 mM and serially diluted with FB) or vehicle were added to each well (25 μl of a 4X solution) and allowed to equilibrate for 20 minutes at room temperature. The plates were then placed in the FLIPR and a baseline fluorescence measurement (excitation at 488 nm and emission at 510-570 nm) was obtained for 10 seconds before a 100 µl/well agonist or vehicle addition. […] Fluorescence was measured for an additional 2 minutes at 1 second intervals after agonist addition. A final addition of ionomycin (5 μM, final concentration) was made to each well of the FLIPR test plate to establish cell viability and maximum fluorescence of dye-bound cytosolic calcium. […]

rat P2X3 receptor = biological target: T2, rat P2X3 receptor (Rattus norvegicus, UniProt P49654); assay: P2X3 FLIPR (Fluorometric Imaging Plate Reader) assay, CHO-K1 cells; assay type: cell-based; settings: CHO-K1 cells transfected with rat P2X3; agonist α,β-meATP 1 μM; Fluo-3 calcium fluorescence
T2 construct: expressed in transfected cells; host or cells: CHO-K1
T2 sequence (P49654 1-397): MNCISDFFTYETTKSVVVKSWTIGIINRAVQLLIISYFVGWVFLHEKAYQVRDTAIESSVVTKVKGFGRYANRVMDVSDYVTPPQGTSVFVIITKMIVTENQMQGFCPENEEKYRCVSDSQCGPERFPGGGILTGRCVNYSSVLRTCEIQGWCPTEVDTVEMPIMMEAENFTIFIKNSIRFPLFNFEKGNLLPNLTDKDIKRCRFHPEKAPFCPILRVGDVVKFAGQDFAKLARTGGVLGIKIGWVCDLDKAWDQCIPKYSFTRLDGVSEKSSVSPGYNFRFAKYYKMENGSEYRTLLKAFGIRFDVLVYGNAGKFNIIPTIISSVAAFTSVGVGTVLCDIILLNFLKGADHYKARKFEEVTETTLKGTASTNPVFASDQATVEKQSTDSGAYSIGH
Experimental: as §1, §2

Structure (SMILES)	pIC50 for the P2X2/3 receptor (human P2X2/3 receptor)	pIC50 for the P2X3 receptor (rat P2X3 receptor)	melting point
CC(C)c1cc2ncccc2cc1Oc1cnc(N)nc1N [5-(7-Isopropyl-quinolin-6-yloxy)-pyrimidine-2,4-diamine]	approximately 7.30	approximately 7.42	206.9 to 208.2 °C
Cc1cccc2cc(C(C)C)c(Oc3cnc(N)nc3N)cc12 [Compound 1, 5(3-Isopropyl-8-methyl-naphthalen-2-yloxy)-pyrimidine-2,4-diamine]			148 °C
COc1ccc2cc(Oc3cnc(N)nc3N)c(C(C)C)cc2c1 [Compound 4, 5-(3-Isopropyl-6-methoxy-naphthalen-2-yloxy)-pyrimidine-2,4-diamine]			170 to 172 °C

Other lines, results leading:

pIC50 for the P2X2/3 receptor (human P2X2/3 receptor)	pIC50 for the P2X3 receptor (rat P2X3 receptor)	melting point	Structure (SMILES)
		276.3 to 278 °C	CC(C)c1cc2cccnc2cc1Oc1cnc(N)nc1N [Compound 9, 5-(6-lsopropyl-quinolin-7-yloxy)-pyrimidine-2,4-diamine]
		171.9 to 174.4 °C	CC(C)c1cc2ncccc2cc1Oc1cnc(NC(CO)CO)nc1N [Compound 11, 2-[4-Amino-5-(7-isopropyl-quinolin-6-yloxy)-pyrimidin-2-ylamino]-propane-1,3-diol]
